One assay concerns the target T1, BTK kinase (Homo sapiens, UniProt Q06187).
T1 construct: purchased Invitrogen PV3363
Description: BTK kinase activity inhibition assay (ADP-Glo). Type of assay: biochemical. As to conditions: ATP 50 μM. As to the method:
The BTK kinase (purchased from Invitrogen, No.: PV3363) was diluted with reaction buffer (40 mM Tris-HCl, pH 7.5; 20 mM MgCl2, 0.1 mg/ml BSA; 1 mM DTT; 2 mM MnCl2) to 2 times of the final concentration (which is 1.1 ng/μL) and added with 5 μL/well to a 96-well plate. The compounds of the present invention were serial diluted with deionized water to four times (i.e., 40 μM, 4 μM, 0.4 μM, 80 nM, 16 nM, 3.2 nM, respectively) of the final concentrations (10 μM, 1 μM, 0.1 μM, 20 nM, 4 nM, 0.8 nM, respectively), and added at 2.5 μL/well to the test wells of the 96-well plate. After incubation at 25° C. for 10 minutes, ATP (50 μM) (purchased from Promega, No.: V9102) and 0.2 μg/μL of Poly E4Y1 (purchased from Sigma, No.: P0275-25MG) were added with 2.5 μL/well and incubated at 25° C. for 120 minutes. After the reaction was completed, 10 μL of the ADP-Glo reagent (ADP-Glo™ kinase assay kit, purchased from Promega, No.: V9102) was added to each well, and reacted at 25° C. for 40 minutes. Then 20 μL of the ADP-Glo kinase detection reagent was added to each well and reacted at 25° C. for 30 minutes. The kinase activity was detected by luminescence using the ADP-Glo kinase assay kit according to the manufacture's instruction, and IC50 values of the compounds of the present invention were calculated.
In general terms: ADP-Glo turns the ADP formed in a reaction into a luminescent signal.

For a further assay, the target named is T2, JAK3 kinase (Homo sapiens, UniProt P52333).
T2 construct: purchased SignalChem J03-11G
T2 sequence (P52333 781-1124 limits assumed): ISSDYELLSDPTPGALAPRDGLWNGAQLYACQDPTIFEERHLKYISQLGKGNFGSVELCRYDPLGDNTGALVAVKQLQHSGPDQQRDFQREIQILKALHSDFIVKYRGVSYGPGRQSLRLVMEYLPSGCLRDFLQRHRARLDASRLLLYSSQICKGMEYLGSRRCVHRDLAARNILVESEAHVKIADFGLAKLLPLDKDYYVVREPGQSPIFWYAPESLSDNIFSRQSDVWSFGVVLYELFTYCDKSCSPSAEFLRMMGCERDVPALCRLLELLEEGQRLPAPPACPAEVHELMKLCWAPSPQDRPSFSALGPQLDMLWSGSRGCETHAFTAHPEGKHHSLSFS
Description: JAK3 kinase activity inhibition assay (ADP-Glo). As to conditions: ATP 10 μM. It is filed as biochemical. How it is done:
The JAK3 kinase (purchased from SignalChem, No.: J03-11G) was diluted with reaction buffer (40 mM Tris-HCl, pH 7.5; 20 mM MgCl2, 0.1 mg/ml BSA; 1 mM DTT) to 2 times of the final concentration (which is 0.5 ng/μL) and added with 5 μL/well to a 96-well plate. The compounds of the present invention were serial diluted with deionized water to four times (i.e., 40 μM, 4 μM, 0.4 μM, 80 nM, 16 nM, 3.2 nM, respectively) of the final concentrations (10 μM, 1 μM, 0.1 μM, 20 nM, 4 nM, 0.8 nM, respectively), and added with 2.5 μL/well to the test wells of the 96-well plate. After incubation at 25° C. for 10 minutes, 10 μM of ATP (purchased from Promega, No.: V9102) and 0.2 μg/μL of Poly E4Y1 (purchased from Sigma, No.: P0275-25MG) were added at 2.5 μL/well and reacted at 25° C. for 60 minutes. After the reaction was completed, 10 μL of the ADP-Glo reagent (ADP-Glo™ kinase assay kit, purchased from Promega, No.: V9102) was added to each well and reacted at 25° C. for 40 minutes. Then 20 μL of the ADP-Glo kinase detection reagent was added to each well and reacted at 25° C. for 30 minutes. The kinase activity was detected by luminescence using the ADP-Glo kinase assay kit according to the manufacture's instruction, and IC50 values of the compounds of the present invention were calculated.

Some results are limits rather than exact numbers.

By IC50 is commonly meant the concentration that gives 50% inhibition. A higher IC50 goes with lower potency.

T1 sequence (Q06187 whole entry): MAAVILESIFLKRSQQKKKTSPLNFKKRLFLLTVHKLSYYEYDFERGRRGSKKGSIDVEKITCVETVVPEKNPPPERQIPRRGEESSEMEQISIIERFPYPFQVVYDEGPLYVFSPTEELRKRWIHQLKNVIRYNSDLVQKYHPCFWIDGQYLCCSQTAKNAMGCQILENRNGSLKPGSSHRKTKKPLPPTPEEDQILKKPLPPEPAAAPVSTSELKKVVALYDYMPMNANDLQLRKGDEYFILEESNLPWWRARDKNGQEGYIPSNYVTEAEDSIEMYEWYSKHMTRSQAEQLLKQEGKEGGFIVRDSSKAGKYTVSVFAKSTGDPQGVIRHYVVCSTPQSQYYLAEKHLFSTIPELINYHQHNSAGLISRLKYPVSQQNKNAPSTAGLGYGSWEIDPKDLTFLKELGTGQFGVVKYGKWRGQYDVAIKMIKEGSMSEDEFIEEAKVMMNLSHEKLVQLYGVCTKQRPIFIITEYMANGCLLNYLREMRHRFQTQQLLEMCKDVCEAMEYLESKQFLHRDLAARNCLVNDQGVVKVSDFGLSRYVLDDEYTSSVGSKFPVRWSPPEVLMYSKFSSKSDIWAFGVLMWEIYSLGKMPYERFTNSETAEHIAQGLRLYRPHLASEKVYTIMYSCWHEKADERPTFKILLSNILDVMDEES

For `C=CC(=O)N1CC(CNc2nc(Nc3cnn(C4CCCC4)c3)nc3ccsc23)C1` [Example 112], the IC50 was not above 50 nM against BTK kinase and 10 to 100 nM at JAK3 kinase.
The like results for `C=CC(=O)N1CC[C@@H](Nc2nc(Nc3cc(C)no3)nc3ccsc23)C1` [Example 79] were, in that order, 100 to 1000 nM and 10 to 100 nM.
Taken in the same sequence, the figures for `C=CC(=O)N1CC(CNc2nc(Nc3cc(C)[nH]n3)nc3ccsc23)C1` [Example 65] were not above 50 nM and 10 to 100 nM.
For `C=CC(=O)N1CC[C@@H](Nc2nc(Nc3cnn(C)c3)nn3cccc23)C1` [Example 138], the IC50 was not above 50 nM at BTK kinase and 10 to 100 nM against JAK3 kinase.
The like results for `C=CC(=O)N1CCC[C@@H](Nc2nc(Nc3cnn(C)c3)nc3ccsc23)C1` [Example 80] were, in that order, not above 50 nM and 10 to 100 nM.
Regarding `C=CC(=O)N1CC[C@@H](Nc2nc(Nc3cnn(CCN4CCOCC4)c3)nc3ccsc23)C1` [Example 126], the 50% inhibitory concentration (IC50) was not above 50 nM at BTK kinase and 10 to 100 nM against JAK3 kinase.
The like results for `C=CC(=O)N1CC[C@@H](N(C)c2nc(Nc3cnn(C)c3)nc3ccsc23)C1` [Example 105, (R)-1-(3-(methyl(2-((1-methyl-1H-pyrazol-4-yl)amino)thieno[3,2-d]pyrimidin-4-yl)amino)pyrrolidin-1-yl)prop-2-en-1-one] were, in that order, not above 50 nM and 10 to 100 nM.
The like results for `C=CC(=O)N1CC(CNc2nc(Nc3cnn(C(C)C)c3)nc3ccsc23)C1` [Example 108] were, in that order, not above 50 nM and not above 10 nM.
In the case of `C=CC(=O)N1CC(CNc2nc(Nc3cnn(COC)c3)nc3ccsc23)C1` [Example 114], the values for the IC50 at BTK kinase and against JAK3 kinase were not above 50 nM and 10 to 100 nM, respectively.
Taken in the same sequence, the figures for `C=CC(=O)N1CCC[C@@H](Nc2nc(Nc3cc(C)no3)nc3ccsc23)C1` [Example 85] were 50 to 100 nM and 10 to 100 nM.
Regarding `C=CC(=O)N1CC(CNc2nc(Nc3cnn(C4CCC4)c3)nc3ccsc23)C1` [Example 111], the IC50 against BTK kinase was not above 50 nM; at JAK3 kinase, 10 to 100 nM.
Turning to `C=CC(=O)N1CC(CNc2nc(Nc3nccs3)nc3ccsc23)C1` [Example 74], the IC50 against BTK kinase was in the range of 50 to 100 nM; at JAK3 kinase, 100 to 1000 nM.
Taken in the same sequence, the figures for `C=CC(=O)N1CC(CNc2nc(Nc3cccs3)nc3ccsc23)C1` [Example 72] were not above 50 nM and 10 to 100 nM.
With `C=CC(=O)N1CC[C@@H](Nc2nc(Nc3cc(C)ns3)nc3ccoc23)C1` [Example 94], the IC50 was not above 50 nM on BTK kinase and not above 10 nM on JAK3 kinase.
As to `C=CC(=O)N1CCC[C@@H](Nc2nc(Nc3cnoc3)nc3ccsc23)C1` [Example 83], the IC50 was not above 50 nM against BTK kinase and not above 10 nM on JAK3 kinase.
Turning to `C=CC(=O)N1CC(CNc2nc(Nc3cnn(C)c3)nc3ccoc23)C1` [Example 92, 1-(3-(((2-((1-methyl-1H-pyrazol-4-yl)amino)furo[3,2-d]pyrimidin-4-yl)amino)methyl)azetidin-1-yl)prop-2-en-1-one], the IC50 against BTK kinase was not above 50 nM; against JAK3 kinase, 100 to 1000 nM.
In the case of `C=CC(=O)N1CCC[C@@H](Nc2nc(Nc3cnn(C)c3)nc3ccoc23)C1` [Example 95], the IC50 is not above 50 nM at BTK kinase and 10 to 100 nM against JAK3 kinase.
For `C=CC(=O)N1CC[C@@H](Nc2nc(Nc3cnn(CC)c3)nc3ccsc23)C1` [Example 118], the figures for the IC50 against BTK kinase and on JAK3 kinase were not above 50 nM and 10 to 100 nM, respectively.
The like results for `C=CC(=O)N1CC[C@@H](Nc2nc(Nc3cnn(C4CCC4)c3)nc3ccsc23)C1` [Example 120] were, in that order, not above 50 nM and 10 to 100 nM.
The like results for `C=CC(=O)N1CC[C@@H](Nc2nc(Nc3cnn(C4CCCC4)c3)nc3ccsc23)C1` [Example 121] were, in that order, not above 50 nM and 10 to 100 nM.
The like results for `C=CC(=O)N1CC(CNc2nc(Nc3cn[nH]c3)nc3ccsc23)C1` [Example 62] were, in that order, not above 50 nM and 10 to 100 nM.
As to `C=CC(=O)N1CC[C@@H](Nc2nc(Nc3cnn(C)c3)nc3ccoc23)C1` [Example 93], the results for the IC50 against BTK kinase and against JAK3 kinase were not above 50 nM and 10 to 100 nM, respectively.
Take `C=CC(=O)N1CCC[C@@H](Nc2nc(Nc3cnn(CC)c3)nc3ccsc23)C1` [Example 127]: the concentration for half-maximal inhibition (IC50) against BTK kinase is not above 50 nM; on JAK3 kinase, not above 10 nM.
With `C=CC(=O)N1CC[C@@H](Nc2nc(Nc3cnn(C)c3)nc3sccc23)C1` [Example 101], the IC50 on BTK kinase fell in the range of 50 to 100 nM; against JAK3 kinase it was 100 to 1000 nM.
Taken in the same sequence, the figures for `C=CC(=O)N1CC[C@@H](Nc2nc(Nc3cc(C)ns3)nc3sccc23)C1` [Example 102] were not above 50 nM and 10 to 100 nM.
The like results for `C=CC(=O)N1CC(CNc2nc(Nc3cnn(CCOC)c3)nc3ccsc23)C1` [Example 115] were, in that order, not above 50 nM and 10 to 100 nM.
The like results for `C=CC(=O)N1CC(CNc2nc(Nc3cc(C)no3)nc3ccsc23)C1` [Example 69] were, in that order, not above 50 nM and 10 to 100 nM.
On to `C=CC(=O)N1CC(CNc2nc(Nc3cnn(C)c3)nc3sccc23)C1` [Example 99, 1-(3-(((2-((1-methyl-1H-pyrazol-4-yl)amino)thieno[2,3-d]pyrimidin-4-yl)amino)methyl)azetidin-1-yl)prop-2-en-1-one], for which the results for the IC50 on BTK kinase and at JAK3 kinase were 50 to 100 nM and 10 to 100 nM, respectively.
Taken in the same sequence, the figures for `C=CC(=O)N1CC(CNc2nc(Nc3cc(C)ns3)nc3ccsc23)C1` [Example 71] were not above 50 nM and not above 10 nM.
Taken in the same sequence, the figures for `C=CC(=O)N1CCC[C@@H](Nc2nc(Nc3cc(C)ns3)nc3ccsc23)C1` [Example 82] were not above 50 nM and not above 10 nM.
The like results for `C=CC(=O)N1CCC[C@@H](Nc2nc(Nc3cnn(C(C)C)c3)nc3ccsc23)C1` [Example 128] were, in that order, not above 50 nM and 10 to 100 nM.
For the compound `C=CC(=O)N1CC[C@@H](Nc2nc(Nc3cnoc3)nc3ccsc23)C1` [Example 78], the IC50 lay in the range of 50 to 100 nM against BTK kinase and 10 to 100 nM at JAK3 kinase.
As for `C=CC(=O)N1CC[C@@H](Nc2nc(Nc3cnn(CCCOC)c3)nc3ccsc23)C1` [Example 123], the results for the IC50 at BTK kinase and against JAK3 kinase were not above 50 nM and 10 to 100 nM, respectively.
Turning to `C=CC(=O)N1CC(CNc2nc(Nc3cc(C(C)C)no3)nc3ccsc23)C1` [Example 70], the figures for the IC50 at BTK kinase and against JAK3 kinase were 50 to 100 nM and 10 to 100 nM, respectively.
Take `C=CC(=O)N1CCC[C@@H](Nc2nc(Nc3cnn(CCOC)c3)nc3ccsc23)C1` [Example 131]: the IC50 on BTK kinase was not above 50 nM; at JAK3 kinase, 10 to 100 nM.
Taken in the same sequence, the figures for `C=CC(=O)N1CCC[C@@H](Nc2nc(Nc3cnn(C)c3)nn3cccc23)C1` [Example 135] were not above 50 nM and 10 to 100 nM.

The record behind these values is US10273242B2, “Compound inhibiting activities of BTK and/or JAK3 kinases” (BEIJING HANMI PHARMACEUTICAL CO., LTD., priority 2013, dated 2019).
